Experimental data from PubChem BioAssay AID2384 (Southern Research Specialized Biocontainment Screening …, 2010).

The compounds below were run on S. typhi GFP reporter counter-screen, fluorescence, 4 h (assay: inhibitors in S. typhi counter-screen strain, dose response, counter-screen for PhoP regulon inhibitor project, fluorescence, 4 h (AID 2384)).

In order of rising IC50:
1. COc1c(N2CCNC(C)C2)c(F)cc2c(=O)c(C(=O)O)cn(C3CC3)c12 (stereo unspecified)  1.1 µM
2. CCn1cc(C(=O)O)c(=O)c2cc(F)c(N3CCN(C)CC3)cc21  1.23 µM
3. COc1c(N2CCN(C(=S)Nc3ccccc3F)C(C)C2)c(F)cc2c(=O)c(C(=O)O)cn(C3CC3)c12 (stereo unspecified)  9.45 µM
4. CNC[C@H](CC1CCCCC1)NC[C@H](Cc1ccccc1)NCCC12CC3CC(CC(C3)C1)C2  10.4 µM
5. O=C(OCC(=O)N1CCOCC1)c1ccc[nH]c1=O  10.9 µM
6. Cc1ccc(Nc2cc(C)c3c(O)cccc3n2)cc1C  11.7 µM
7. CS(=O)(=O)c1ccc([C@@H](O)[C@@H](CO)NC(=O)C(Cl)Cl)cc1  18 µM
8. CC(C(=O)NC1CCS(=O)(=O)C1)N1C(=O)/C(=C/c2ccc(Cl)cc2)SC1=S (stereo unspecified)  18.2 µM
9. C#CCOCCOCCOCCNc1nc(N2CCN(C(=O)CCCCCCCCCCNC(=O)[C@H](CO)n3cc(CCCCCN)nn3)CC2)nc(N2CCN(C(=O)CCCCCCCCCCNC(=O)[C@H](CCCN=C(N)N)n3cc(C[C@@H](C)CC)nn3)CC2)n1  19.5 µM
10. CN1CCN(c2ccc(NC(=O)c3ccc(-c4ccc(Br)cc4)o3)cc2)CC1  19.6 µM
11. CN(C)CCCNC(=O)c1ccc(-c2nc(-c3ccc(Cl)cc3)cs2)cc1  19.7 µM
12. O=C(/C=C/c1ccccc1)c1cc(Br)ccc(=O)c1O  21.8 µM
13. CSc1ccc2c(c1)C(N1CCN(C)CC1)Cc1ccc(F)cc1S2 (stereo unspecified)  23.9 µM
14. C#CCOCCOCCOCCNc1nc(N2CCN(C(=O)[C@H](Cc3cc4ccccc4[nH]3)n3cc([C@@H](N)C(C)CC)nn3)CC2)nc(N2CCN(C(=O)[C@H](Cc3cc4ccccc4[nH]3)n3cc([C@@H](N)CC(C)C)nn3)CC2)n1 (stereo partly specified)  24.1 µM
15. Cc1ccc(-c2c[n+](Cc3ccc(Cl)c(Cl)c3)c3n2CCC3)cc1  25.8 µM
16. O=C(NC(=S)NNC(=O)c1ccccc1O)c1ccco1  25.8 µM
17. O=C(C[n+]1ccc(-c2ccccc2)cc1)Nc1ccc([N+](=O)[O-])cc1  26.3 µM
18. O=C(Nc1nnc(-c2cccs2)o1)c1cccc(C(F)(F)F)c1  26.4 µM
19. O=C(Cn1cc[n+](CC(=O)c2ccc(Cl)cc2Cl)c1)c1ccc(Cl)cc1Cl  27.6 µM
20. CCn1cc(C(=O)NCCO)c(=O)c2cc(F)c(N3CCN(C)CC3)cc21  27.7 µM
21. O=C(CCC(=O)Nc1ccc(Cl)cc1Cl)N/N=C/c1ccc([N+](=O)[O-])o1  29 µM
22. CCN1CCN(C(=O)c2cc3cc(Cl)ccc3[nH]2)CC1  30.4 µM
23. O=C(N/N=C/c1ccc([N+](=O)[O-])s1)C(O)c1ccccc1 (stereo unspecified)  32.1 µM
24. Cc1ccccc1C(=O)Nc1cccc(C(=O)N/N=C/c2cc(Cl)cc([N+](=O)[O-])c2O)c1  32.9 µM
25. Nc1c(Cl)ncnc1N/N=C/c1ccccn1  32.9 µM
26. CCCCCCCCNc1ncnc2ccccc12  33.2 µM
27. CCCCCCCCCCCCCCCCn1cc[n+](C)c1  34.8 µM
28. C#CCOCCOCCOCCNc1nc(N2CCN(C(=O)CCCCCCCCCCNC(=O)[C@H](CCCCN)n3cc(CCO)nn3)CC2)nc(N2CCN(C(=O)CCCCCCCCCCNC(=O)[C@H](CCCCN)n3cc(CCO)nn3)CC2)n1  36.3 µM
29. CN1CCCN(C(c2ccccc2)c2ccc(Cl)cc2)CC1 (stereo unspecified)  37.7 µM
30. CCn1cc(C(=O)O)c(=O)c2cc(F)c(N3CCN(C(=S)NC(=O)c4cccc(C)c4)CC3)cc21  37.8 µM
31. CC1CCC(C(C)C)C(OC(=O)Cn2c(-c3ccc(Cl)cc3)[n+](C)c3ccccc32)C1 (stereo unspecified)  38.3 µM
32. COc1ccc(/C=N/Nc2cc(C)nc3c(C)cccc23)cc1  40.7 µM
33. O=C(N/N=C/c1ccccn1)c1ccc(Br)o1  45.1 µM
34. COc1cccc(-c2nnc(NC(=O)c3ccc(Cl)s3)o2)c1  45.7 µM
35. Cn1c(SCC(=O)N/N=C/c2ccc([N+](=O)[O-])s2)nnc1-c1ccc(Cl)cc1  46.2 µM
36. COc1cc(/C=N/N=C(N)N)ccc1OCc1ccc(Cl)cc1  46.8 µM
37. Nc1[nH]ncc1-c1ccccc1  48 µM
38. CNC(=S)N1CCN(c2c(F)cc3c(=O)c(C(=O)O)cn(C4CC4)c3c2OC)CC1C (stereo unspecified)  48.2 µM
39. CCn1cc(C(=O)O)c(=O)c2cc(F)c(N3CCN(C(=S)NC(=O)c4ccccc4C)CC3)cc21  49.3 µM
40. O=C(C[n+]1cc(-c2ccc(Cl)cc2)n2c1CCC2)N1c2ccccc2Sc2ccccc21  50.9 µM
41. O=C(Nc1ccccc1)Oc1ccc[nH]c1=O  52.9 µM
42. O=C(N/N=C/c1cc([N+](=O)[O-])ccc1O)C(O)(c1ccccc1)c1ccccc1  54.9 µM
43. O=C(c1ccccc1)c1c2c(cc3sc4ccccc4[n+]13)-c1cccc3cccc-2c13  55.4 µM
44. CC(NCC(O)COc1ccc2ccccc2c1)c1ccccc1 (stereo unspecified)  58.4 µM
45. CCN1CCN(Cc2ccc(NC(=O)c3ccc(C)c(NC(=O)C(=O)c4c[nH]c5ccccc45)c3)cc2C(F)(F)F)CC1  59.3 µM
46. O=C(NC(=S)NNC(=O)c1cccs1)c1ccc(Br)o1  60.2 µM
47. NC(=O)SCC(=O)Nc1cccc(Cl)c1  60.9 µM
48. Cc1ccc(C(C[N+](=O)[O-])c2c(N)n(C)c(=O)n(C)c2=O)cc1 (stereo unspecified)  61.3 µM
49. C/C(=N\N=C(N)N)c1ccc(Cl)c(Cl)c1  64.4 µM
50. Cc1cccc(C(=O)NNC(=S)NC(=O)c2cccs2)c1  66.3 µM
51. CCOC(=O)N1CCN(CCC(=O)c2ccc(Cl)cc2)CC1  66.6 µM
52. C[N+]12CN3CN(CN(C3)C1)C2  69.8 µM
53. COc1ccc(CNCCC(c2ccccc2)c2ccc3c(c2)OCO3)cc1 (stereo unspecified)  73.4 µM
54. CC1CCC(C(C)C)C(OC(=O)Cn2c(-c3ccc(Br)cc3)[n+](C)c3ccccc32)C1 (stereo unspecified)  73.6 µM
55. c1ccc(CN2CCN(c3ncnc4c3[nH]c3ccccc34)CC2)cc1  73.8 µM
56. Cc1ccc(N/C(=C\C(=O)c2ccccc2)C(=O)O)cc1  74.4 µM
57. Cc1ccccc1C(=O)N/N=C/c1ccc([N+](=O)[O-])s1  75.3 µM
58. O=c1[nH]cc(N=Cc2cc([N+](=O)[O-])ccc2O)c(=O)[nH]1  77.8 µM
59. CNC(CC(=O)c1ccc([N+](=O)[O-])cc1)C(Cl)(Cl)Cl (stereo unspecified)  82.7 µM
60. Cc1ncc(CC(=O)n2cc(C(=O)c3cc(Cl)ccc3O)cn2)s1  82.9 µM
61. COc1ccc(N2CC(C(=O)N/N=C/c3cc([N+](=O)[O-])ccc3O)CC2=O)cc1 (stereo unspecified)  93.2 µM
62. Cc1c(N2C(=O)/C(=C3\C(=O)N(CC(=O)O)c4ccccc43)SC2=S)c(=O)n(-c2ccccc2)n1C  95.2 µM
63. CCN1CCN(C(=O)Nc2ccc(Cc3ccc(NC(=O)N4CCN(CC)CC4)cc3)cc2)CC1  97.4 µM
64. CC(c1cccnc1)N(CCN(C)C)C(=O)Nc1ccc(Cl)c(Cl)c1 (stereo unspecified)  98.4 µM
65. CCCCCCOc1ccc(CN2CCN(CC)CC2)cc1  100 µM
66. COc1cccc2c(=O)c(C(=O)O)c[nH]c12  113 µM
67. CCN1CCCC1Cn1cnc2c([nH]c3ccc(Cl)cc32)c1=O (stereo unspecified)  118 µM
68. Cc1cc(NS(=O)(=O)c2ccc(NC(=O)Nc3cccc(Cl)c3)cc2)no1  120 µM
69. CCn1ncc(/C=N\NC(=O)c2csc3ccccc23)c1C  124 µM
70. O=C(Nc1ccc(Cc2ccncc2)cc1)c1ccc([N+](=O)[O-])o1  126 µM
71. COc1ccccc1NC(=O)CN1CCC(c2nc3ccc(C)cc3[nH]2)CC1  143 µM
72. Cc1cc(N=Nc2ccccc2)c(NCC(O)C(O)C(O)CO)cc1C (stereo unspecified)  144 µM
73. CCN1CCN(Cc2ccc(NC(=O)c3cc(NC(=O)c4cc(-c5ccc(OC)cc5)n[nH]4)cc(OC)c3)cc2C(F)(F)F)CC1  145 µM
74. NS(=O)(=O)OCCCc1ccc(C(F)(F)F)cc1  145 µM
75. NS(=O)(=O)c1ccc(CNc2ccc3ccccc3n2)cc1  145 µM
76. NCC/C=C1/c2ccccc2CSc2ccccc21  146 µM
